Measurements reported in patent publication US10336762B2 (priority 2017, dated 2019).
Like-named read-outs stand apart in the source and are kept apart here.

What was measured:
IRAK4 enzyme = IRAK4 enzyme (Homo sapiens (Human), UniProt Q9NWZ3); experiment: biochemical; type: biochemical; conditions: IRAK4 enzyme, 500 μM ATP
TNFα = experiment: cells; type: cell-based, human; conditions: LPS-stimulated human monocytes, read-out: EC50 TNF
[1] = Homo sapiens, Monocyte, TNFα content
[2] = Homo sapiens, Monocyte, TNFα by TR-FRET

IRAK4 enzyme, sequence (Q9NWZ3 whole entry): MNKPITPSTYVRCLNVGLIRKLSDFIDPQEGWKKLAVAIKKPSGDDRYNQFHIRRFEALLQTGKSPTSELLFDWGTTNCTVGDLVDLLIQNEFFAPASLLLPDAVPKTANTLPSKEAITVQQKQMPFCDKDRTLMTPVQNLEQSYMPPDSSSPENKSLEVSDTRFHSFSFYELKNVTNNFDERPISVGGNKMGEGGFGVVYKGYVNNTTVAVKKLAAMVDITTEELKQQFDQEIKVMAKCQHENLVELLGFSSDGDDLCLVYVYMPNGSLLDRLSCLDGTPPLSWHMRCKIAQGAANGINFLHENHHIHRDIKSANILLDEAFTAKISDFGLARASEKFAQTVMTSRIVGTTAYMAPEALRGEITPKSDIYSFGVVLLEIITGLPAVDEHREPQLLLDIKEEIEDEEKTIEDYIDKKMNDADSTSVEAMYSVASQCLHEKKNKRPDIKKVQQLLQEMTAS

Structure (SMILES) | IC50 (IRAK4 enzyme; TR-FRET (HTRF)) [nM] | EC50 (TNFα; [1]) [nM] | IC50 (IRAK4 enzyme; TR-FRET) [nM] | EC50 (TNFα; [2]) [nM] | EC50 (TNFα; TNFα content) [nM]
CC(C)(O)[C@H](F)CNC(=O)c1cnc(-c2ccc3cc(C#N)cnn23)cc1N[C@H]1CC[C@H](c2ccon2)CC1 [Example 777, 6-(3-cyanopyrrolo[1,2-b]pyridazin-7-yl)-N-((R)-2-fluoro-3-hydroxy-3-methylbutyl)-4-(((1r,4R)-4-(isoxazol-3-yl)cyclohexyl)amino)nicotinamide] | < 1 | 15 |  |  | 
CC(C)(O)[C@H](F)CNC(=O)c1cnc(-c2ccc3cc(C#N)cnn23)cc1NC1CCC(=O)NC1 (stereo partly drawn) [Example 367, 6-(3-cyanopyrrolo[1,2-b]pyridazin-7-yl)-N-((R)-2-fluoro-3-hydroxy-3-methylbutyl)-4-((6-oxopiperidin-3-yl)amino)nicotinamide] |  | 1560 | 3 |  | 
CC(C)(O)[C@H](F)CNC(=O)c1cnc(-c2ccc3cc(C#N)cnn23)cc1Nc1ccc(-c2cc[nH]n2)cc1 [Example 177, (R)-4-((4-(1H-pyrazol-3-yl)phenyl)amino)-6-(3-cyanopyrrolo[1,2-b]pyridazin-7-yl)-N-(2-fluoro-3-hydroxy-3-methylbutyl)nicotinamide] |  | 29 | < 1 |  | 
CC(C)(O)[C@H](F)CNC(=O)c1cnc(-c2ccc3cc(C#N)cnn23)cc1N[C@@H]1CCN(S(C)(=O)=O)C1 [Example 53, 6-(3-cyanopyrrolo[1,2-b]pyridazin-7-yl)-N-((R)-2-fluoro-3-hydroxy-3-methylbutyl)-4-(((R)-1-(methylsulfonyl)pyrrolidin-3-yl)amino)nicotinamide] |  | 65 | < 1 |  | 
CNc1cc(-c2ccc3cc(C#N)cnn23)ncc1C(=O)NCC#N [Example 463, N-(cyanomethyl)-6-(3-cyanopyrrolo[1,2-b]pyridazin-7-yl)-4-(methylamino)nicotinamide] | 3 | 163 |  |  | 
Cc1noc(C)c1CNc1cc(-c2ccc3cc(C#N)cnn23)ncc1C(=O)NC[C@@H](F)C(C)(C)O [Example 107, (R)-6-(3-cyanopyrrolo[1,2-b]pyridazin-7-yl)-4-(((3,5-dimethylisoxazol-4-yl)methyl)amino)-N-(2-fluoro-3-hydroxy-3-methylbutyl) nicotinamide] |  | 961 | 17 |  | 
CNC(=O)c1cnc(-c2ccc3cc(C#N)cnn23)cc1NC12CC(NC(=O)OC)(C1)C2 [Example 488, methyl (3-((2-(3-cyano-pyrrolo[1,2-b]pyridazin-7-yl)-5-(methylcarbamoyl)pyridin-4-yl)amino)bicyclo[1.1.1]pentan-1-yl)carbamate] | 1 | 71 |  |  | 
CC(C)(O)[C@H](F)CNC(=O)c1cnc(-c2ccc3cc(C#N)cnn23)cc1N[C@H]1CCC[C@@H](N2CCOCC2)C1 [Example 524, 6-(3-cyanopyrrolo[1,2-b]pyridazin-7-yl)-N-((R)-2-fluoro-3-hydroxy-3-methylbutyl)-4-(((1S,3R)-3-morpholinocyclohexyl)amino)nicotinamide] | 1 | 97 |  |  | 
COc1cccc(Nc2cc(-c3ccc4cc(C#N)cnn34)ncc2C(=O)NC[C@@H](F)C(C)(C)O)c1 [Example 606, (R)-6-(3-cyanopyrrolo[1,2-b]pyridazin-7-yl)-N-(2-fluoro-3-hydroxy-3-methylbutyl)-4-((3-methoxyphenyl)amino) nicotinamide] | 1 | 33 |  |  | 
[2H]C([2H])([2H])NC(=O)c1cnc(-c2ccc3cc(C#N)cnn23)cc1NC12CC(NC(C)=O)(C1)C2 [Example 497, 4-((3-acetamidobicyclo[1.1.1]pentan-1-yl)amino)-6-(3-cyanopyrrolo[1,2-b]pyridazin-7-yl)-N-(methyl-d3)nicotinamide] | 1 | 55 |  |  | 
CC(C)(O)[C@H](F)CNC(=O)c1cnc(-c2ccc3cc(C#N)cnn23)cc1Nc1ccc(CNC(=O)C2CC2)cc1 [Example 202, (R)-6-(3-cyanopyrrolo[1,2-b]pyridazin-7-yl)-4-((4-(cyclopropane-carboxamidomethyl)phenyl)amino)-N-(2-fluoro-3-hydroxy-3-methylbutyl)nicotinamide] |  | 22 | < 1 |  | 
Cc1cn2ccc(Nc3cc(-c4ccc5cc(C#N)cnn45)ncc3C(=O)NC[C@@H](F)C(C)(C)O)cc2n1 [Example 563, (R)-6-(3-cyanopyrrolo[1,2-b]pyridazin-7-yl)-N-(2-fluoro-3-hydroxy-3-methylbutyl)-4-((2-methyl-imidazo[1,2-a]pyridin-7-yl)amino)nicotinamide] | 2 | 114 |  |  | 
CC(C)(O)[C@H](F)CNC(=O)c1cnc(-c2ccc3cc(C#N)cnn23)cc1NC[C@@H](F)C(C)(C)O [Example 560, 6-(3-cyanopyrrolo[1,2-b]pyridazin-7-yl)-N-((R)-2-fluoro-3-hydroxy-3-methylbutyl)-4-(((R)-2-fluoro-3-hydroxy-3-methylbutyl)amino) nicotinamide] | < 1 | 83 |  |  | 
CC(C)(O)[C@H](F)CNC(=O)c1cnc(-c2ccc3cc(C#N)cnn23)cc1NCC1(O)CC1 [Example 97, (R)-6-(3-cyanopyrrolo[1,2-b]pyridazin-7-yl)-N-(2-fluoro-3-hydroxy-3-methylbutyl)-4-(((1-hydroxycyclopropyl)methyl)amino)nicotinamide] |  | 180 | 2 |  | 
CC1(NC(=O)c2cnc(-c3ccc4cc(C#N)cnn34)cc2NC23CCC(O)(CC2)CC3)CC1 [Example 950, 6-(3-cyanopyrrolo[1,2-b]pyridazin-7-yl)-4-((4-hydroxybicyclo[2.2.2]octan-1-yl)amino)-N-(1-methylcyclopropyl) nicotinamide] |  |  | 1 | 70 | 
CCn1cnc(Nc2cc(-c3ccc4cc(C#N)cnn34)ncc2C(=O)NC[C@@H](F)C(C)(C)O)n1 [Example 128, (R)-6-(3-cyanopyrrolo[1,2-b]pyridazin-7-yl)-4-((1-ethyl-1H-1,2,4-triazol-3-yl)amino)-N-(2-fluoro-3-hydroxy-3-methylbutyl)nicotinamide] |  | 141 | 1 |  | 
CC(C)(C#N)c1ccc(Nc2cc(-c3ccc4cc(C#N)cnn34)ncc2C(=O)NC[C@@H](F)C(C)(C)O)cn1 [Example 683, (R)-4-((6-(2-cyanopropan-2-yl)pyridin-3-yl)amino)-6-(3-cyanopyrrolo[1,2-b]pyridazin-7-yl)-N-(2-fluoro-3-hydroxy-3-methyl-butyl)nicotinamide] | 1 | 45 |  |  | 
CC(C)(F)CNC(=O)c1cnc(-c2ccc3cc(C#N)cnn23)cc1NC12CCC(O)(CC1)CC2 [Example 740, 6-(3-cyanopyrrolo[1,2-b]pyridazin-7-yl)-N-(2-fluoro-2-methylpropyl)-4-((4-hydroxybicyclo[2.2.2]octan-1-yl)amino) nicotinamide] | 4 | 265 |  |  | 
CN1CCN(C(=O)[C@H](F)CNC(=O)c2cnc(-c3ccc4cc(C#N)cnn34)cc2NC23CCC(O)(CC2)CC3)CC1 [Example 948, (R)-6-(3-cyanopyrrolo[1,2-b]pyridazin-7-yl)-N-(2-fluoro-3-(4-methylpiperazin-1-yl)-3-oxopropyl)-4-((4-hydroxybicyclo[2.2.2]octan-1-yl)amino) nicotinamide] |  |  | 3 | 282 | 
CC(C)Nc1cc(-c2ccc3cc(C#N)cnn23)ncc1C(=O)NC1CC2(C1)CC(C)(O)C2 (stereo not shown) [Example 153, 6-(3-cyanopyrrolo[1,2-b]pyridazin-7-yl)-N-(6-hydroxy-6-methylspiro[3.3]heptan-2-yl)-4-(isopropylamino)nicotinamide] |  | 91 | < 1 |  | 
CC(C)(O)[C@H](F)CNC(=O)c1cnc(-c2ccc3cc(C#N)cnn23)cc1Nc1ccc(Cn2ccccc2=O)cc1 [Example 719, (R)-6-(3-cyanopyrrolo[1,2-b]pyridazin-7-yl)-N-(2-fluoro-3-hydroxy-3-methylbutyl)-4-((4-((2-oxopyridin-1(2H)-yl)methyl)phenyl)amino)nicotinamide] | < 1 | 11 |  |  | 
CC(C)(O)[C@H](F)CNC(=O)c1cnc(-c2ccc3cc(C#N)cnn23)cc1Nc1cnn(CC(F)F)c1 [Example 89, (R)-6-(3-cyanopyrrolo[1,2-b]pyridazin-7-yl)-4-((1-(2,2-difluoroethyl)-1H-pyrazol-4-yl)amino)-N-(2-fluoro-3-hydroxy-3-methylbutyl) nicotinamide] |  | 16 | < 1 |  | 
CC(C)(O)[C@H](F)CNC(=O)c1cnc(-c2ccc3cc(C#N)cnn23)cc1NC1Cc2ccncc2C1 (single isomer, unassigned) [Example 677] | < 1 |  |  |  | 54
N#Cc1cnn2c(-c3cc(NC45CCC(O)(CC4)CC5)c(C(=O)NCC(=O)N4CCN(C5COC5)CC4)cn3)ccc2c1 [Example 796, 6-(3-cyanopyrrolo[1,2-b]pyridazin-7-yl)-4-((4-hydroxybicyclo[2.2.2]octan-1-yl)amino)-N-(2-(4-(oxetan-3-yl)piperazin-1-yl)-2-oxoethyl)nicotinamide] | 2 | 75 |  |  | 
CC(C)(O)[C@H](F)CNC(=O)c1cnc(-c2ccc3cc(C#N)cnn23)cc1N[C@H]1C[C@H](COC(=O)N2CC(F)(F)C2)C1 [Example 738, ((1R,3r)-3-((2-(3-cyano-pyrrolo[1,2-b]pyridazin-7-yl)-5-(((R)-2-fluoro-3-hydroxy-3-methylbutyl)carbamoyl)pyridin-4-yl)amino)cyclobutyl) methyl 3,3-difluoro-azetidine-1-carboxylate] | < 1 | 29 |  |  | 
CC(C)(O)[C@H](F)CNC(=O)c1cnc(-c2ccc3cc(C#N)cnn23)cc1N[C@H]1CC[C@](C)(O)CC1 [Example 445, 6-(3-cyanopyrrolo[1,2-b]pyridazin-7-yl)-N-((R)-2-fluoro-3-hydroxy-3-methylbutyl)-4-(((1r,4R)-4-hydroxy-4-methylcyclo-hexyl)amino)nicotinamide] | 1 | 59 |  |  | 
